Assay results from patent US6544166B1, “Treatment of human infertility” (priority 1999, dated 2003).
Marks after values point to notes of the source that are not given here.

Legend:
[1] = test system: mouse oocytes; experiment: In vitro fertilization of mouse oocytes after in vitro maturation with or without Hx arrest and FF-MAS induction (Example 4); type: cell-based, mice (C57Bl/6J×DBA/2J F1-hybrids)
Protocol: Aim: to optimize the culture conditions for mammalian oocytes by arresting the spontaneous maturation for 4 hours before initiating oocyte maturation by the means of adding a adequate concentration of FF-MAS.
Óocytes were obtained from immature (21-24 day old) female mice (C57Bl/6J×DBA/2J F1-hybrids, M&B, Denmark) weighing 13-16 grams, which were kept under controlled lighting and temperature. […] The ovaries were dissected out and the oocytes were isolated in Hx-medium (see below) under a stereomicroscope by manual rupture of the follicles using a pair of 27 gauge needles. Spherical oocytes displaying an intact germinal vesicle (GV) were selected and placed in α-minimum essential medium (α-MEM without ribonucleosides, Gibco BRL, Cat. No. 22561) supplemented with 3 mM hypoxanthine (Sigma Cat. No. H-9377), 8 mg/ml Human Serum Albumin (HSA, State Serum Institute, Denmark), 0.23 mM pyruvate (Sigma, Cat. No. S-8636), 2 mM glutamine (Flow Cat. No. 16-801), 100 IU/ml penicillin and 100 μg/ml streptomycin (Flow, Cat. No. 16-700). This medium was designated Hx-medium. The exact same medium without Hx was designated Hx-free medium
Thus oocytes were cultured in 4-well multidishes (Nunclon, Denmark) in which each well contained 0.4 ml of Hx-medium or medium without Hx (to allow for spontaneous maturation) and 35-45 oocytes.
Different treatment groups:
1. Controls: No inhibition, No FF-MAS
2. MAS: No inhibition and 10 μM FF-MAS
3. Inhibition and then spontaneous maturation: Hx-medium for 4 hours then transfer to Hx-free medium
4. Inhibition and FF-MAS induction: Hx-medium for 4 hours and addition of FF-MAS to Hx-medium
5. Inhibition and removal of inhibition and then subsequently FF-MAS induction: Hx-medium for 4 hours, rinse, transfer to Hx-free medium and addition of FF-MAS.
In vitro fertilization following 16-20 hours maturation.
Endpoints: Fertilization rate and in vitro embryo development.

[2] = test system: cumulus enclosed human oocytes; experiment: Maturation of cumulus enclosed human oocytes with FF-MAS; type: cell-based
Text: Although the use of FF-MAS improves the rate of fertility compared to the currently applied methods, it is still desirable to increase this rate even further.

[3] = test system: mouse oocytes; conditions: 24 hours meiotic arrest with hypoxanthine, then 16-30 hour culture in inhibitor-free medium; cited from earlier work
[4] = Treatment No 4: Hx-medium for 4 hours and addition of FF-MAS to Hx-medium
[5] = Treatment No 5: Hx-medium for 4 hours, rinse, transfer to Hx-free medium and addition of FF-MAS
[6] = Treatment No 3: Hx-medium (3 mM hypoxanthine) for 4 hours then transfer to Hx-free medium, no FF-MAS

Row | SMILES | Oocyte quality evaluated as fertilization rate and embryonic developmental capacity, compared with the other treatments ([1]; 4th treatment modality: inhibition (Hx-medium) and FF-MAS induction) | Embryo development Rate (8-cell rate at 72 hours) ([1]; Treatment No 2: no inhibition and 10 μM FF-MAS) | Fertilization Rate ([1]; Treatment No 2: no inhibition and 10 μM FF-MAS, IVF following 16-20 hours maturation) | Embryo development Rate (8-cell rate at 72 hours) [1, 4] | Fertilization Rate [1, 4] | Embryo development Rate (8-cell rate at 72 hours) [1, 5] | Fertilization Rate [1, 5] | Effect on nuclear and cytoplasmic maturation [2] | Embryo development Rate (8-cell rate at 72 hours) [1, 6] | Fertilization Rate [1, 6] | Arrested oocytes that resumed maturation [3]
1 | CC(C)=CCC[C@@H](C)[C@H]1CC=C2C3=C(CC[C@@]21C)[C@@]1(C)CC[C@H](O)C(C)(C)[C@@H]1CC3 [FF-MAS, 4,4-dimethyl-5α-cholesta-8,14,24-triene-3β-ol] | significantly superior to the other treatment alternatives | <10% | <50% | 30%* | 75%* | <10% | <50% | improves not only nuclear but cytoplasmic maturation | – | – | –
2 | O=c1[nH]cnc2nc[nH]c12 [hypoxanthine, Hypoxanthine] | – | – | – | – | – | – | – | – | <10% | <50% | ~100%
